The text below walks through data of patent publication US20240116985A1, “STAPLED PEPTIDES AND METHODS THEREOF” (priority 2020, published 2024).

pIC50: −log10 of the molar value. Like-named read-outs stand apart in the source and are kept apart here.

One data set in a line: CHI Log D procedure. It counts as physicochemical.
Data set [1] has as its target T1, full-length beta-Catenin (Uniprot ID P35222) (Homo sapiens, UniProt P35222).
T1 construct: 10 nM full-length beta-Catenin (Uniprot ID P35222)
T1 sequence (P35222 1-781): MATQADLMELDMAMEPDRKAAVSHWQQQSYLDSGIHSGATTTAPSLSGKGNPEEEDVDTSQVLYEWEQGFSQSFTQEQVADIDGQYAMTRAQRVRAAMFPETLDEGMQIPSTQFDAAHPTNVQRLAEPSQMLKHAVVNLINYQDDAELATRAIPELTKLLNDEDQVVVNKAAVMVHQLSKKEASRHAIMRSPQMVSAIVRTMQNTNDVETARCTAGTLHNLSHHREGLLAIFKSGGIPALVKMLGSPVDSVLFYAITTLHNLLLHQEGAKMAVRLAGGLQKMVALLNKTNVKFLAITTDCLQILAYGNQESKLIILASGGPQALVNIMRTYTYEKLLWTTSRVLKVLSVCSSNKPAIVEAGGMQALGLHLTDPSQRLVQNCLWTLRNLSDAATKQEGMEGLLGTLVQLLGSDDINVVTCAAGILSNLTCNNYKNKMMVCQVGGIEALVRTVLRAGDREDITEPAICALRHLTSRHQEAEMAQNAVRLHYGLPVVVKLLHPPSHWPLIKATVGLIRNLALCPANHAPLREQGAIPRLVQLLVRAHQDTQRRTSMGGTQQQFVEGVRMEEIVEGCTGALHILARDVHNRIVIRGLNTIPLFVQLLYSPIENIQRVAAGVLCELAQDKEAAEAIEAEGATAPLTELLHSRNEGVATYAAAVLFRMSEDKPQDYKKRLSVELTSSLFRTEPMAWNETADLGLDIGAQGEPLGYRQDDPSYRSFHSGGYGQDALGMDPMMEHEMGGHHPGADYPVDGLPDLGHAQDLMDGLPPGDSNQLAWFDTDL
The data set is described as follows: Fluorescence polarization IC50 (beta-catenin / 5FAM-TCF4 10-53 competition). It counts as binding. To be noted: for IC50: FP EC50 (nM).

Where [2] appears, read: fluorescence polarization, read-out: beta-Catenin FP IC50.

As to `CC[C@H](C)[C@@H]1NC(=O)[C@H](CC(=O)O)NC(=O)[C@]2(CC=CCCCC3(CCCC=CCCCCCC[C@@](C)(C(=O)N[C@@H](Cc4ccccc4)C(=O)N[C@@H](Cc4csc5ccccc45)C(=O)N[C@@H](CCC(N)=O)C(N)=O)NC(=O)[C@H](CCCCNC(=O)CN=[N+]=[N-])NC(=O)[C@H](Cc4ccccc4)NC(=O)[C@H](C)NC(=O)[C@H](C)NC(=O)[C@H](CCC(=O)O)NC(=O)[C@H](CC(=O)O)NC3=O)NC1=O)CCCN2C(C)=O` (stereo partly drawn) [I-594, Ac-PL3-Asp-Ile-B5-Asp-Glu-Ala-Ala-Phe-[AzAc]Lys-S8-Phe-BztA-Gln-NH2], in the data set “CHI Log D procedure” (pH 7.4), the chromatographic logD came to 2.61. This molecule also had an IC50 in data set [1] of 87 nM.

Molecule `CC[C@H](C)[C@@H]1NC(=O)[C@H](CC(=O)O)NC(=O)[C@]2(CC=CCCCC3(CCCC=CCCCCCC[C@@](C)(C(=O)N[C@@H](Cc4ccccc4)C(=O)N[C@@H](Cc4csc5ccccc45)C(=O)N[C@@H](CCCCNC(=O)CN=[N+]=[N-])C(N)=O)NC(=O)[C@H](CCC(N)=O)NC(=O)[C@H](Cc4ccccc4)NC(=O)[C@H](C)NC(=O)[C@H](C)NC(=O)[C@H](CCC(=O)O)NC(=O)[C@H](CC(=O)O)NC3=O)NC1=O)CCCN2C(C)=O` (stereo partly drawn) [I-595, Ac-PL3-Asp-Ile-B5-Asp-Glu-Ala-Ala-Phe-Gln-S8-Phe-BztA-[AzAc]Lys-NH2] yielded a chromatographic logD in the data set “CHI Log D procedure” (pH 7.4) of 2.64. This molecule displayed an IC50 in data set [1] of 57 nM.

As to `CC[C@H](C)[C@@H]1NC(=O)[C@H](CC(=O)O)NC(=O)[C@]2(CC=CCCCC3(CCCC=CCCCCCC[C@@](C)(C(=O)N[C@@H](Cc4ccccc4)C(=O)N[C@@H](Cc4csc5ccccc45)C(=O)N[C@@H](CCC(N)=O)C(=O)N[C@@H](CCCCNC(=O)CN=[N+]=[N-])C(N)=O)NC(=O)[C@H](CCC(N)=O)NC(=O)[C@H](Cc4ccccc4)NC(=O)[C@H](C)NC(=O)[C@H](C)NC(=O)[C@H](CCC(=O)O)NC(=O)[C@H](CC(=O)O)NC3=O)NC1=O)CCCN2C(C)=O` (stereo partly drawn) [I-596, Ac-PL3-Asp-Ile-B5-Asp-Glu-Ala-Ala-Phe-Gln-S8-Phe-BztA-Gln-[AzAc]Lys-NH2], the “CHI Log D” value in the data set “CHI Log D procedure” (pH 7.4) stood at 2.373. Besides, the pIC50 in data set [1] (read-out: FP EC50) is 6.95.

On to `CC[C@H](C)[C@@H]1NC(=O)[C@H](CC(=O)O)NC(=O)[C@]2(CC=CCCCC3(CCCC=CCCCCCC[C@@](C)(C(=O)N[C@@H](Cc4ccccc4)C(=O)N[C@@H](Cc4csc5ccccc45)C(=O)N[C@@H](CCC(N)=O)C(=O)N[C@@H](CCCCNC(=O)CN=[N+]=[N-])C(N)=O)NC(=O)[C@H](CCC(N)=O)NC(=O)[C@H](Cc4ccccc4)NC(=O)[C@H](C)NC(=O)[C@H](C)NC(=O)[C@H](CCC(=O)O)NC(=O)[C@H](CC(=O)O)NC3=O)NC1=O)CCCN2C(C)=O` (stereo partly drawn) [I-597, Ac-PL3-Asp-Ile-B5-Asp-Glu-Ala-Ala-Phe-Gln-S8-Phe-BztA-Gln-[AzAc]Lys-NH2], for which the “CHI Log D” value in the data set “CHI Log D procedure” (pH 7.4) is on record as 2.39. Further, in data set [1] (read-out: FP EC50), the pIC50 was 7.12.

In the case of `CC[C@H](C)[C@@H]1NC(=O)[C@H](CC(=O)O)NC(=O)[C@]2(CC=CCCCC3(CCCC=CCCCCCC[C@@](C)(C(=O)N[C@@H](Cc4ccccc4)C(=O)N[C@@H](Cc4csc5ccccc45)C(=O)N[C@@H](CCC(N)=O)C(N)=O)NC(=O)[C@H](CCC(N)=O)NC(=O)[C@H](Cc4ccccc4)NC(=O)[C@H](C)NC(=O)[C@H](C)NC(=O)[C@H](CCC(=O)O)NC(=O)[C@H](CC(=O)O)NC3=O)NC1=O)CCCN2C(=O)CCc1ccccn1` (stereo partly drawn) [I-602, 2PyPrpc-PL3-Asp-Ile-B5-Asp-Glu-Ala-Ala-Phe-Gln-S8-Phe-BztA-Gln-NH2], the chromatographic logD in “CHI Log D procedure” (pH 7.4, CHI Log D) was 3.15. For the same molecule, in data set [1] (setting [2]), the pIC50 was 5.50.

`CC[C@H](C)[C@@H]1NC(=O)[C@H](CC(=O)O)NC(=O)[C@]2(CC=CCCCC3(CCCC=CCCCCCC[C@@](C)(C(=O)N[C@@H](Cc4ccccc4)C(=O)N[C@@H](Cc4csc5ccccc45)C(=O)N[C@@H](CCC(N)=O)C(N)=O)NC(=O)[C@H](CCC(N)=O)NC(=O)[C@H](Cc4ccccc4)NC(=O)[C@H](C)NC(=O)[C@H](C)NC(=O)[C@H](CN(CC)CC(=O)O)NC(=O)[C@H](CC(=O)O)NC3=O)NC1=O)CCCN2C(C)=O` (stereo partly drawn) [I-608, Ac-PL3-Asp-Ile-B5-Asp-EtGa-Ala-Ala-Phe-Gln-S8-Phe-BztA-Gln-NH2]: in the data set “CHI Log D procedure” (pH 7.4), the “CHI Log D” value turned out to be 2.506. In “CHI Log D procedure” (pH 7.4), the pH-dependent lipophilicity (logD) came to 2.5. Besides, the pIC50 in data set [1] (setting [2]), in data set [1] (read-out: FP EC50) and in data set [1] (read-out: bCat FP IC50) was 6.68 throughout.

Turning to `CC[C@H](C)[C@@H]1NC(=O)[C@H](CC(=O)O)NC(=O)[C@]2(CC=CCCCC3(CCCC=CCCCCCC[C@@](C)(C(=O)N[C@@H](Cc4ccccc4)C(=O)N[C@@H](Cc4csc5ccccc45)C(=O)N[C@@H](CCC(N)=O)C(N)=O)NC(=O)[C@H](CCC(N)=O)NC(=O)[C@H](Cc4ccccc4)NC(=O)[C@H](C)NC(=O)[C@H](C)NC(=O)[C@H](CN(CC)CC(=O)O)NC(=O)[C@H](CC(=O)O)NC3=O)NC1=O)CCCN2C(C)=O` (stereo partly drawn) [I-609, Ac-PL3-Asp-Ile-B5-Asp-EtGa-Ala-Ala-Phe-Gln-S8-Phe-BztA-Gln-NH2], the “CHI Log D” value in “CHI Log D procedure” (pH 7.4) is reported as 2.534. The logD in “CHI Log D procedure” (pH 7.4) is listed as 2.5. Besides, the pIC50 in data set [1] (setting [2]), in data set [1] (read-out: FP EC50) and in data set [1] (read-out: bCat FP IC50) was 7.10 in each case.

Take `CC[C@H](C)[C@@H]1NC(=O)[C@H](CC(=O)O)NC(=O)[C@]2(CC=CCCCC3(CCCC=CCCCCCC[C@@](C)(C(=O)N[C@@H](Cc4ccccc4)C(=O)N[C@@H](Cc4csc5ccccc45)C(=O)N[C@@H](CCC(N)=O)C(N)=O)NC(=O)[C@H](CCC(N)=O)NC(=O)[C@H](Cc4ccccc4)NC(=O)[C@H](C)NC(=O)[C@H](C)NC(=O)[C@H](CN(CC(=O)O)CC(F)(F)F)NC(=O)[C@H](CC(=O)O)NC3=O)NC1=O)CCCN2C(C)=O` (stereo partly drawn) [I-610, Ac-PL3-Asp-Ile-B5-Asp-TfeGA-Ala-Ala-Phe-Gln-S8-Phe-BztA-Gln-NH2]: the “CHI Log D” value in the data set “CHI Log D procedure” (pH 7.4) is on record as 2.587. This molecule yielded a logD in the data set “CHI Log D procedure” (pH 7.4) of 2.6. Moreover, the pIC50 in data set [1] (setting [2]), in data set [1] (read-out: FP EC50) and in data set [1] (read-out: bCat FP IC50) was 7.27 throughout.

`CC[C@H](C)[C@@H]1NC(=O)[C@H](CC(=O)O)NC(=O)[C@]2(CC=CCCCC3(CCCC=CCCCCCC[C@@](C)(C(=O)N[C@@H](Cc4ccccc4)C(=O)N[C@@H](Cc4csc5ccccc45)C(=O)N[C@@H](CCC(N)=O)C(N)=O)NC(=O)[C@H](CCC(N)=O)NC(=O)[C@H](Cc4ccccc4)NC(=O)[C@H](C)NC(=O)[C@H](C)NC(=O)[C@H](CN(CC(=O)O)CC(F)(F)F)NC(=O)[C@H](CC(=O)O)NC3=O)NC1=O)CCCN2C(C)=O` (stereo partly drawn) [I-611, Ac-PL3-Asp-Ile-B5-Asp-TfeGA-Ala-Ala-Phe-Gln-S8-Phe-BztA-Gln-NH2]: in “CHI Log D procedure” (pH 7.4), the “CHI Log D” value came to 2.595. Also, the pH-dependent lipophilicity (logD) in the data set “CHI Log D procedure” (pH 7.4) is recorded as 2.6. In addition, the pIC50 in data set [1] (setting [2]), in data set [1] (read-out: FP EC50) and in data set [1] (read-out: bCat FP IC50) was 7.26 in each case.

`CC[C@H](C)[C@@H]1NC(=O)[C@H](CNS(=O)(=O)C(F)(F)F)NC(=O)[C@]2(CC=CCCCC3(CCCC=CCCCCCC[C@@](C)(C(=O)N[C@@H](Cc4ccccc4)C(=O)N[C@@H](Cc4csc5ccccc45)C(=O)N[C@@H](CCC(N)=O)C(N)=O)NC(=O)[C@H](CCC(N)=O)NC(=O)[C@H](Cc4ccccc4)NC(=O)[C@H](C)NC(=O)[C@H](C)NC(=O)[C@H](CCC(=O)O)NC(=O)[C@H](CC(=O)O)NC3=O)NC1=O)CCCN2C(C)=O` (stereo partly drawn) [I-632, Ac-PL3-[Tf]Dap-Ile-B5-Asp-Glu-Ala-Ala-Phe-Gln-S8-Phe-BztA-Gln-NH2]: in the data set “CHI Log D procedure” (pH 7.4, CHI Log D), the chromatographic logD was 3.15. Further, the pIC50 in data set [1] (setting [2]) was 5.30.

For `CCCC[C@@H]1NC(=O)[C@H](C)NC(=O)[C@H](CCC(=O)O)NC(=O)[C@H](CC(=O)O)NC(=O)C2(CCCC=CCCCCCC[C@@](C)(C(=O)N[C@@H](Cc3ccccc3)C(=O)N[C@@H](Cc3csc4ccccc34)C(=O)N[C@@H](CCC(N)=O)C(N)=O)NC(=O)[C@H](CCC(N)=O)NC(=O)[C@H](Cc3ccccc3)NC1=O)CCCC=CC[C@]1(CCCN1C(C)=O)C(=O)N[C@@H](CC(=O)O)C(=O)N[C@@H]([C@@H](C)CC)C(=O)N2` (stereo partly drawn) [I-666, Ac-PL3-Asp-Ile-B5-Asp-Glu-Ala-nLeu-Phe-Gln-S8-Phe-BztA-Gln-NH2], the “CHI Log D” value in the data set “CHI Log D procedure” (pH 7.4) came out at 2.862. For the same molecule, the pIC50 in data set [1] (setting [2]) and in data set [1] (read-out: FP EC50) was 6.20 in each case.

For the molecule `CCCC[C@@H]1NC(=O)[C@H](C)NC(=O)[C@H](CCC(=O)O)NC(=O)[C@H](CC(=O)O)NC(=O)C2(CCCC=CCCCCCC[C@@](C)(C(=O)N[C@@H](Cc3ccccc3)C(=O)N[C@@H](Cc3csc4ccccc34)C(=O)N[C@@H](CCC(N)=O)C(N)=O)NC(=O)[C@H](CCC(N)=O)NC(=O)[C@H](Cc3ccccc3)NC1=O)CCCC=CC[C@]1(CCCN1C(C)=O)C(=O)N[C@@H](CC(=O)O)C(=O)N[C@@H]([C@@H](C)CC)C(=O)N2` (stereo partly drawn) [I-667, Ac-PL3-Asp-Ile-B5-Asp-Glu-Ala-nLeu-Phe-Gln-S8-Phe-BztA-Gln-NH2], the “CHI Log D” value in “CHI Log D procedure” (pH 7.4) is 2.88. For the same molecule, the pIC50 in data set [1] (setting [2]) and in data set [1] (read-out: FP EC50) was 6.23 each time.
